Laboratory results from ChEMBL document CHEMBL5046231, “Modulation of Naturally Occurring Linear Dipeptide Chirality to Reduce the Affinity for Oligopeptide Transporter 1 and Increase Intestinal Stability for an Enhanced Colon-Targeting Effect in the Treatment of Inflammatory Bowel Disease: An Application of trans-4-l-Hydroxyprolyl-l-serine” (J Med Chem, 2022).
Calls of active or inactive are those of the source. No cut-off for these calls is given here.

How the values were obtained:
Mus musculus [1] = assay: Anti-colitis activity against DSS-induced colitis in C57BL/6 mouse model assessed as fold decrease in disease activity index at 25 mg/kg, po administered via gavage twice daily for 10 days relative to control; format: functional; conditions: time 10 day
Mus musculus [2] = assay: Anti-colitis activity against DSS-induced C57BL/6 mouse model of colitis assessed as decrease in MPO level in colon at 100 mg/kg, po administered via gavage twice a day for 10 days; format: functional; parameters: scale not given: the % may be the effect or the level left; conditions: time 10 day
[3] = Metabolic stability in healthy C57BL/6 mouse jejunum assessed as half life measured up to 12 hrs by HPLC analysis; format: ADME, tissue-based
[4] = Cmax in healthy C57BL/6 mouse at 25 mg/kg, po measured up to 6 hrs by UPLC-MS/MS analysis; format: ADME, organism-based; parameters: route oral, dose 25 mg/kg, time <=6; conditions: in vivo
Mus musculus [5] = assay: Antiinflammatory activity in DSS-induced C57BL/6 mouse model of colitis assessed as decrease in […] level 25 to 100 mg/kg, po administered via gavage twice a day for 10 days; format: functional, organism-based; conditions: dose 25-100 mg/kg, time 10.0 day
[6] = Stability in simulated gastric fluid at pH 1.2 assessed as half life measured up to 12 hrs by HPLC analysis; format: ADME
[7] = Metabolic stability in DSS-induced C57BL/6 mouse colon assessed as half life measured up to 12 hrs by HPLC analysis; format: ADME, tissue-based
Mus musculus [8] = assay: Antiinflammatory activity in DSS-induced C57BL/6 mouse model of colitis assessed as decrease in IL-1beta level 25 to 100 mg/kg, po administered via gavage twice a day for 10 days; format: functional, organism-based; conditions: dose 25-100 mg/kg, time 10.0 day
Mus musculus [9] = assay: Anti-colitis activity against DSS-induced C57BL/6 mouse model of colitis assessed as fold change in colon length at 25 to 100 mg/kg, po administered via gavage twice a day for 10 days relative to SASP; format: functional; conditions: dose 25-100 mg/kg; time 10 day
[10] = Toxicity in healthy C57BL/6 mouse assessed as change in body weight at 100 mg/kg, po administered for 10 days; format: organism-based; conditions: in vivo, 240 h, time 10 day
[11] = Metabolic stability in DSS-induced C57BL/6 inflammatory mouse model colonic flora homogenate assessed as half life measured up to 12 hrs by HPLC analysis; format: ADME; conditions: C57BL/6, mouse
[12] = Cmax in DSS-induced colitis C57BL/6 mouse model at 25 mg/kg, po measured up to 6 hrs by UPLC-MS/MS analysis; format: ADME, organism-based; parameters: route oral, dose 25 mg/kg, time <=6; conditions: in vivo
[13] = Toxicity in healthy C57BL/6 mouse assessed as histological changes in kidney at 100 mg/kg, po administered for 10 days by H and E staining based assay; format: organism-based; conditions: in vivo, 240 h, time 10 day
[14] = AUC (0 to 6 hrs) in DSS-induced colitis C57BL/6 mouse model at 25 mg/kg, po measured up to 6 hrs by UPLC-MS/MS analysis; format: ADME, organism-based; parameters: route oral, dose 25 mg/kg, time <=6; conditions: in vivo
[15] = Metabolic stability in healthy C57BL/6 mouse colon assessed as half life measured up to 12 hrs by HPLC analysis; format: ADME, tissue-based
Mus musculus [16] = assay: Anti-colitis activity against DSS-induced colitis in C57BL/6 mouse model assessed as decrease in MPO level in colon at 50 mg/kg, po administered via gavage twice a day for 10 days; format: functional; parameters: scale not given: the % may be the effect or the level left; conditions: time 10 day
[17] = Chemical stability in phosphate buffer at pH 7.2 assessed as half life measured up to 12 hrs by HPLC analysis; format: physicochemical
[18] = AUC (0 to 6 hrs) in healthy C57BL/6 mouse at 25 mg/kg, po measured up to 6 hrs by UPLC-MS/MS analysis; format: ADME, organism-based; parameters: route oral, dose 25 mg/kg, time <=6; conditions: in vivo
[19] = Stability in simulated intestinal fluid at pH 6.8 assessed as half life measured up to 12 hrs by HPLC analysis; format: ADME
[20] = Toxicity in healthy C57BL/6 mouse assessed as histological changes in liver at 100 mg/kg, po administered for 10 days by H and E staining based assay; format: organism-based; conditions: in vivo, 240 h, time 10 day
[21] = Toxicity in healthy C57BL/6 mouse assessed as histological changes in heart at 100 mg/kg, po administered for 10 days by H and E staining based assay; format: organism-based; conditions: in vivo, 240 h, time 10 day
Mus musculus [22] = assay: Anti-colitis activity against DSS-induced C57BL/6 mouse model of colitis assessed as restoration of intestinal barrier function by measuring fold increase in FITC-dextran level in plasma at 25 mg/kg, po administered via gavage twice a day for 10 days followed by FITC-dextran addition and measured after 4 hrs; format: functional; conditions: time 10 day
[23] = Toxicity in healthy C57BL/6 mouse assessed as effect on colon length at 100 mg/kg, po administered for 10 days; format: organism-based; conditions: in vivo, 240 h, time 10 day
[24] = Chemical stability in 0.1 M HCl at pH 1.2 assessed as half life measured up to 12 hrs by HPLC analysis; format: physicochemical
[25] = Metabolic stability in healthy C57BL/6 mouse liver assessed as half life measured up to 12 hrs by HPLC analysis; format: ADME, tissue-based
[26] = Stability in human Caco-2 cells homogenate assessed as half life measured up to 12 hrs by HPLC analysis; format: ADME, cell-based; conditions: Caco-2 cell homogenate
[27] = Chemical stability in phosphate buffer at pH 6.8 assessed as half life measured up to 12 hrs by HPLC analysis; format: physicochemical
[28] = Metabolic stability in healthy C57BL/6 mouse colonic flora homogenate assessed as half life measured up to 12 hrs by HPLC analysis; format: ADME
Mus musculus [29] = assay: Antiinflammatory activity in DSS-induced C57BL/6 mouse model of colitis assessed as decrease in TNF-alpha level 25 to 100 mg/kg, po administered via gavage twice a day for 10 days; format: functional, organism-based; conditions: dose 25-100 mg/kg, time 10.0 day
[30] = Metabolic stability in DSS-induced C57BL/6 mouse jejunum assessed as half life measured up to 12 hrs by HPLC analysis; format: ADME, tissue-based
[31] = Tmax in DSS-induced colitis C57BL/6 mouse model at 25 mg/kg, po measured up to 6 hrs by UPLC-MS/MS analysis; format: ADME, organism-based; conditions: in vivo

half-life [3]: > 720 min
Cmax [4]: 5.79 µM
half-life [6]: > 720 min
half-life [7]: > 720 min
half-life [11]: > 720 min
Cmax [12]: 24 µM
AUC [14]: 54.65 microM/L.hr
half-life [15]: > 720 min
half-life [17]: > 720 min
AUC [18]: 16.61 microM/L.hr
half-life [19]: > 720 min
half-life [24]: > 720 min
half-life [25]: > 720 min
half-life [26]: > 720 min
half-life [27]: > 720 min
half-life [28]: > 720 min
half-life [30]: > 720 min
Tmax [31]: 4 h
Compound: O=C(O)[C@@H](CO)NC(=O)[C@H]1C[C@@H](O)CN1
fold change (FC) (Mus musculus [1]): 1.5
Activity (Mus musculus [2]): 59.7%
Activity (Mus musculus [5]): Active
Activity (Mus musculus [8]): Active
fold change (FC) (Mus musculus [9]): 1.2
Activity [10]: Non-Toxic
Activity [13]: Non-Toxic
Activity (Mus musculus [16]): 47.5%
Activity [20]: Non-Toxic
Activity [21]: Non-Toxic
fold change (FC) (Mus musculus [22]): 10.7
Activity [23]: Non-Toxic
Activity (Mus musculus [29]): Active
